Data on 1 sequence can be found in patent US20020058042A1, “Non-IgA fc binding forms of the Group B streptococcal beta antigens” (priority 1996, published 2002).

No end group written: not given here.

This assay concerns binding of human IgA to the purified Cβ protein. Put plainly: ELISA inhibition assay: peptides blocking binding of human IgA to purified Cβ protein. Particulars: synthetic peptide added with half-maximal dilution of IgA myeloma protein. The procedure:
Several synthetic peptides were made corresponding to the amino acid sequence contained within this region of the Cβ protein. Peptides were synthesized using NMP t-butoxycarbonyl chemistry on an ABI 430A peptide synthesizer (Applied Biosystems, Foster City, Calif.) and were deprotected. Peptides from a sample of the resin were removed from the resin by treatment with HF in the presence of anisole (0° C./1 h). Preparative purification of these peptides were performed using a C18 column (2.14 ID×30 cm) (Dynamax-Rainin, Woburn, Mass.). The peptides were quantitated by PTC amino acid analysis using Waters Picotag system (Waters, Milford, Mass.). The synthesized peptides eluted from the C18 column as a major peak consisting of usually 75-85% of the total elution profile. The amino acid composition of the purified peptides were in good agreement with the sequence which was used to synthesize the peptides. […] The plates were incubated at 37° C. for 1 h and the absorbance at 405 nm determined using an Elida-5 microtiter plate reader (Physica, New York, N.Y.). […] This was done to obtain a titer of the human IgA myeloma protein which would give a half-maximal reading in the ELISA assay. […] The dilution of the human IgA myeloma protein which gave the half maximal reading was then added. […] The plates were then processed and read as described. The percentage of inhibition would be calculated as follows: […]
On the technique in general: An ELISA detects its analyte on a solid surface through an enzyme-linked reagent.

As for NHQKSQVEKMAEQKG [SEQ ID NO: 10], the “inhibition of human IgA binding to purified Cβ” value is recorded as “inhibited”.
